Tests used:
[1] = test system: ORYSAT (Rice, Tebonnet); assay: Preemergence herbicidal evaluation; type: in vivo, Oryza sativa, (L.) Tebonnet; conditions: rated 4-5 weeks after treatment
How it was run: (§1)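 Each species is sown separately in potting soil over roughly an inch of soil before any emergence. The soil surface then receives an aqueous acetone spray delivering about 0.0156 to 0.500 kg/ha of compound. After four to five weeks, injury is scored from 0 to 9 relative to a control.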

[2] = test system: SETVI (Foxtail, Green); assay: Preemergence herbicidal evaluation; type: in vivo, Setaria viridis; conditions: rated 4-5 weeks after treatment
How it was run: as §1

[3] = test system: GLXMAW (Soybean, Williams); assay: Postemergence herbicidal evaluation; type: in vivo, Glycine max, (L.) Merr. cv Williams; conditions: postemergence
How it was run: (§2)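 Seedlings grown about two weeks were sprayed at 40 psi with compound dispersed in 50/50 acetone/water plus 0.5% TWEEN 20, at about 0.0156 to 0.500 kg/ha. Plants were kept in the greenhouse and scored 4–5 weeks later on a 0–9 visual scale against untreated controls.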

[4] = test system: CYPSE (Flatsedge); assay: Preemergence weed control under flooded paddy conditions; type: in vivo, Cyperus serotinus; conditions: rated 3-4 weeks after treatment
How it was run: (§3)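 Seeds or propagules sown in silt loam kept flooded 1.5-3 cm; compounds in 50/50 acetone/water pipetted into flood water at about 0.0313 to 0.500 kg/ha. Greenhouse; visual 0-9 rating versus untreated control 3-4 weeks after treatment.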

[5] = test system: GALAP (Galium); assay: Postemergence herbicidal evaluation; type: in vivo, Galium aparine; conditions: postemergence
How it was run: as §2

[6] = test system: SAGPY (Arrowhead (Pygmaea)); assay: Postemergence weed control under flooded paddy conditions; type: in vivo, Sagittaria pygmaea; conditions: postemergence weeds, rated 3 to 4 weeks after treatment
How it was run: (§4)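 Injury ratings (0–9 scale covering stand, vigor, malformation, size, chlorosis and overall appearance versus control) were made three to four weeks after treatment. Test material, about 0.0313 to 0.500 kg/ha a.i. in 50/50 v/v aqueous/acetone, was added to flood water 1.5 to 3 cm deep over 3 to 5 cm weeds and 1.5 to 2.5 leaf rice.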

[7] = test system: TRZAWR (Wheat, Winter, cv Riband); assay: Postemergence herbicidal evaluation; type: in vivo, Triticum aestivum; conditions: postemergence
How it was run: as §2

[8] = test system: CASOB (Sicklepod); assay: Postemergence herbicidal evaluation; type: in vivo, Cassia obtusifolia; conditions: postemergence
How it was run: as §2

[9] = test system: SAGPY (Arrowhead (Pygmaea)); assay: Preemergence weed control under flooded paddy conditions; type: in vivo, Sagittaria pygmaea; conditions: rated 3-4 weeks after treatment
How it was run: as §3

[10] = test system: ECHORC (Watergrass (Calif.)); assay: as above; type: in vivo, Echinochloa oryzoides; conditions: rated 3-4 weeks after treatment
How it was run: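 Visual injury scored 0-9 against control three to four weeks post-treatment, greenhouse-grown. Application: acetone/water (50/50) solutions dosed directly into flood water (1.5-3 cm over silt loam, planted top 0.5 cm), roughly 0.0313 to 0.500 kg/ha active ingredient.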

[11] = test system: AMBEL (Ragweed, Common); assay: Postemergence herbicidal evaluation; type: in vivo, Ambrosia artemisifolia; conditions: postemergence
How it was run: as §2

[12] = test system: GALAP (Galium); assay: Preemergence herbicidal evaluation; type: in vivo, Galium aparine; conditions: rated 4-5 weeks after treatment
How it was run: as §1

[13] = test system: ECHORC (Watergrass (Calif.)); assay: Postemergence weed control under flooded paddy conditions; type: in vivo, Echinochloa oryzoides; conditions: postemergence weeds, rated 3 to 4 weeks after treatment
How it was run: as §4

C[C@H](C(=O)O)N1C(=O)CSC1=Nc1cc(-n2c(=O)cc(C(F)(F)F)n(C)c2=O)c(F)cc1Cl [Compound 70, 2-{{2-Chloro-5-[3,6-dihydro-3-methyl-2,6-dioxo-4-(trifluoromethyl)-1(2H)-pyrimidinyl]-4-fluoro-phenyl}imino}-α-methyl-4-oxo-3-thiazolidineacetic acid, D-]
7.0: GLXMAW herbicidal rating ([3]; rate 0.0630 kg/ha) | AMBEL herbicidal rating ([11]; rate 0.0630 kg/ha)
1.0: Preemergence herbicidal rating ORYSAT ([1]; rate 0.1250 kg/ha)
4.5: GLXMAW herbicidal rating ([3]; rate 0.0158 kg/ha)
0.0: Preemergence herbicidal rating ORYSAT ([1]; rate 0.0156 kg/ha) | Preemergence herbicidal rating ORYSAT ([1]; rate 0.0313 kg/ha) | Preemergence herbicidal rating ORYSAT ([1]; rate 0.0625 kg/ha) | Preemergence herbicidal rating SETVI ([2]; rate 0.0156 kg/ha) | Preemergence herbicidal rating SETVI ([2]; rate 0.0313 kg/ha) | CYPSE herbicidal effect rating ([4]; 0.0313 kg/ha) | CYPSE herbicidal effect rating ([4]; 0.0625 kg/ha) | CYPSE herbicidal effect rating ([4]; 0.1250 kg/ha) | GALAP herbicidal rating ([5]; rate 0.0158 kg/ha) | GALAP herbicidal rating ([5]; rate 0.0315 kg/ha) | CASOB herbicidal rating ([8]; rate 0.0158 kg/ha) | CASOB herbicidal rating ([8]; rate 0.0315 kg/ha) | ECHORC herbicidal effect rating ([10]; 0.0313 kg/ha) | ECHORC herbicidal effect rating ([10]; 0.0625 kg/ha) | ECHORC herbicidal effect rating ([10]; 0.1250 kg/ha) | ECHORC herbicidal effect rating ([10]; 0.2500 kg/ha) | Preemergence herbicidal rating GALAP ([12]; rate 0.0156 kg/ha) | Preemergence herbicidal rating GALAP ([12]; rate 0.0313 kg/ha) | Preemergence herbicidal rating GALAP ([12]; rate 0.0625 kg/ha) | Preemergence herbicidal rating GALAP ([12]; rate 0.1250 kg/ha) | Preemergence herbicidal rating GALAP ([12]; rate 0.2500 kg/ha) | Herbicidal rating ECHORC ([13]; Rate 0.0313 kg/ha) | Herbicidal rating ECHORC ([13]; Rate 0.0625 kg/ha) | Herbicidal rating ECHORC ([13]; Rate 0.1250 kg/ha) | Herbicidal rating ECHORC ([13]; Rate 0.2500 kg/ha)
4.0: Herbicidal rating SAGPY ([6]; Rate 0.0313 kg/ha) | Herbicidal rating SAGPY ([6]; Rate 0.0625 kg/ha) | Herbicidal rating SAGPY ([6]; Rate 0.1250 kg/ha) | Herbicidal rating SAGPY ([6]; Rate 0.2500 kg/ha) | TRZAWR herbicidal rating ([7]; rate 0.0315 kg/ha) | SAGPY herbicidal effect rating ([9]; 0.0313 kg/ha) | SAGPY herbicidal effect rating ([9]; 0.0625 kg/ha) | SAGPY herbicidal effect rating ([9]; 0.1250 kg/ha) | SAGPY herbicidal effect rating ([9]; 0.2500 kg/ha)
5.5: GLXMAW herbicidal rating ([3]; rate 0.0315 kg/ha) | TRZAWR herbicidal rating ([7]; rate 0.0630 kg/ha)
6.0: AMBEL herbicidal rating ([11]; rate 0.0158 kg/ha) | AMBEL herbicidal rating ([11]; rate 0.0315 kg/ha)
2.5: TRZAWR herbicidal rating ([7]; rate 0.0158 kg/ha)
3.0: Preemergence herbicidal rating ORYSAT ([1]; rate 0.2500 kg/ha) | CYPSE herbicidal effect rating ([4]; 0.2500 kg/ha) | GALAP herbicidal rating ([5]; rate 0.0630 kg/ha) | CASOB herbicidal rating ([8]; rate 0.0630 kg/ha)
9.0: Preemergence herbicidal rating SETVI ([2]; rate 0.1250 kg/ha) | Preemergence herbicidal rating SETVI ([2]; rate 0.2500 kg/ha)
2.0: Preemergence herbicidal rating SETVI ([2]; rate 0.0625 kg/ha)

CC(C)C[C@@H](C(=O)O)N1C(=O)CSC1=Nc1cc(-n2c(=O)cc(C(F)(F)F)n(C)c2=O)c(F)cc1Cl [Compound 71, α-Isobutyl-2-{{2-chloro-5-[3,6-dihydro-3-methyl-2,6-dioxo-4-(trifluoromethyl)-1(2H)-pyrimidinyl]-4-fluorophenyl}imino}-4-oxo-3-thiazolidineacetic acid, L-]
0.0: Preemergence herbicidal rating ORYSAT ([1]; rate 0.0156 kg/ha) | Preemergence herbicidal rating ORYSAT ([1]; rate 0.0313 kg/ha) | Preemergence herbicidal rating ORYSAT ([1]; rate 0.0625 kg/ha) | Preemergence herbicidal rating SETVI ([2]; rate 0.0156 kg/ha) | Preemergence herbicidal rating SETVI ([2]; rate 0.0313 kg/ha) | Preemergence herbicidal rating SETVI ([2]; rate 0.0625 kg/ha) | Herbicidal rating SAGPY ([6]; Rate 0.1250 kg/ha) | Herbicidal rating SAGPY ([6]; Rate 0.2500 kg/ha) | SAGPY herbicidal effect rating ([9]; 0.1250 kg/ha) | SAGPY herbicidal effect rating ([9]; 0.2500 kg/ha) | ECHORC herbicidal effect rating ([10]; 0.1250 kg/ha) | Preemergence herbicidal rating GALAP ([12]; rate 0.0156 kg/ha) | Preemergence herbicidal rating GALAP ([12]; rate 0.0313 kg/ha) | Preemergence herbicidal rating GALAP ([12]; rate 0.0625 kg/ha) | Herbicidal rating ECHORC ([13]; Rate 0.1250 kg/ha)
1.0: Preemergence herbicidal rating ORYSAT ([1]; rate 0.1250 kg/ha)
2.0: CASOB herbicidal rating ([8]; rate 0.0158 kg/ha)
6.5: GLXMAW herbicidal rating ([3]; rate 0.0158 kg/ha)
4.0: Preemergence herbicidal rating SETVI ([2]; rate 0.1250 kg/ha) | GALAP herbicidal rating ([5]; rate 0.0158 kg/ha) | CASOB herbicidal rating ([8]; rate 0.0630 kg/ha)
7.0: GALAP herbicidal rating ([5]; rate 0.0630 kg/ha) | ECHORC herbicidal effect rating ([10]; 0.2500 kg/ha) | Herbicidal rating ECHORC ([13]; Rate 0.2500 kg/ha)
3.0: Preemergence herbicidal rating ORYSAT ([1]; rate 0.2500 kg/ha) | CYPSE herbicidal effect rating ([4]; 0.1250 kg/ha) | CYPSE herbicidal effect rating ([4]; 0.2500 kg/ha) | CASOB herbicidal rating ([8]; rate 0.0315 kg/ha)
4.5: TRZAWR herbicidal rating ([7]; rate 0.0630 kg/ha)
7.5: GLXMAW herbicidal rating ([3]; rate 0.0315 kg/ha) | GLXMAW herbicidal rating ([3]; rate 0.0630 kg/ha)
9.0: Preemergence herbicidal rating SETVI ([2]; rate 0.2500 kg/ha) | AMBEL herbicidal rating ([11]; rate 0.0158 kg/ha) | AMBEL herbicidal rating ([11]; rate 0.0315 kg/ha) | AMBEL herbicidal rating ([11]; rate 0.0630 kg/ha) | Preemergence herbicidal rating GALAP ([12]; rate 0.1250 kg/ha)
2.5: TRZAWR herbicidal rating ([7]; rate 0.0158 kg/ha)
3.5: TRZAWR herbicidal rating ([7]; rate 0.0315 kg/ha)
6.0: GALAP herbicidal rating ([5]; rate 0.0315 kg/ha) | Preemergence herbicidal rating GALAP ([12]; rate 0.2500 kg/ha)

Source: patent US20020137929A1, “1 - (3-heterocyclylphenyl) isothiourea, -isourea, -guanidine and -amidine herbicidal agents” (Intellectual Property Department, BASF Aktiengesellschaft, priority 1998, published 2002)
